Data taken from the NIST ThermoML archive (doi:10.1016/j.jct.2006.05.006).
Numbers after ± are expanded uncertainties.

Assays:
[1] = 101 kPa, Liquid
[2] = refractive index (Na D-line) (dimensionless); details: 293.1 K; 101.33 kPa; Liquid; Standard Abbe refractometry
[3] = xn = mol fraction of the nth substance listed; details: 101 kPa, Liquid

## CN1CCCC1=O [N-methylpyrrolidone]
[1]; 293.15 K
  mass density: 1032.66 ± 0.37 kg/m3
[1]; 303.15 K
  mass density: 1023.42 ± 0.34 kg/m3
[1]; 313.15 K
  mass density: 1014.27 ± 0.31 kg/m3
[1]; 323.15 K
  mass density: 1005.62 ± 0.28 kg/m3
[1]; 333.15 K
  mass density: 996.28 ± 0.28 kg/m3
[1]; 343.15 K
  mass density: 987.39 ± 0.31 kg/m3
[1]; 353.15 K
  mass density: 978.62 ± 0.65 kg/m3
[2]
  refractive index: 1.4677 ± 0.0007

## CN1CCCC1=O [N-methylpyrrolidone] + CCc1ccccc1
[3]; 293.15 K, x2 = 0
  mass density: 1032.66 ± 0.37 kg/m3
[3]; 303.15 K, x2 = 0
  mass density: 1023.42 ± 0.34 kg/m3
[3]; 313.15 K, x2 = 0
  mass density: 1014.27 ± 0.31 kg/m3
[3]; 323.15 K, x2 = 0
  mass density: 1005.62 ± 0.28 kg/m3
[3]; 333.15 K, x2 = 0
  mass density: 996.28 ± 0.28 kg/m3
[3]; 343.15 K, x2 = 0
  mass density: 987.39 ± 0.31 kg/m3
[3]; 353.15 K, x2 = 0
  mass density: 978.62 ± 0.33 kg/m3

## c1ccccc1 [benzene]
[1]; 293.15 K
  mass density: 878.96 ± 0.64 kg/m3
[1]; 303.15 K
  mass density: 868.21 ± 0.67 kg/m3
[1]; 313.15 K
  mass density: 857.4 ± 0.71 kg/m3
[1]; 323.15 K
  mass density: 846.55 ± 0.74 kg/m3
[1]; 333.15 K
  mass density: 835.66 ± 0.78 kg/m3
[1]; 343.15 K
  mass density: 824.71 ± 0.81 kg/m3
[2]
  refractive index: 1.5009 ± 0.0007

## c1ccccc1 [benzene] + CN1CCCC1=O
[3]; 293.15 K, x1 = 1
  mass density: 878.96 ± 0.64 kg/m3
[3]; 303.15 K, x1 = 1
  mass density: 868.21 ± 0.67 kg/m3
[3]; 313.15 K, x1 = 1
  mass density: 857.4 ± 0.71 kg/m3
[3]; 323.15 K, x1 = 1
  mass density: 846.55 ± 0.74 kg/m3
[3]; 333.15 K, x1 = 1
  mass density: 835.66 ± 0.78 kg/m3
[3]; 343.15 K, x1 = 1
  mass density: 824.71 ± 0.81 kg/m3

## CCc1ccccc1 [ethylbenzene]
[1]; 293.15 K
  mass density: 867.28 ± 0.81 kg/m3
[1]; 303.15 K
  mass density: 858.36 ± 0.84 kg/m3
[1]; 313.15 K
  mass density: 849.38 ± 0.86 kg/m3
[1]; 323.15 K
  mass density: 840.35 ± 0.89 kg/m3
[1]; 333.15 K
  mass density: 831.25 ± 0.91 kg/m3
[1]; 343.15 K
  mass density: 822.11 ± 0.94 kg/m3
[1]; 353.15 K
  mass density: 812.9 ± 0.97 kg/m3
[2]
  refractive index: 1.4962 ± 0.0008

## Cc1ccccc1 [toluene]
[1]; 293.15 K
  mass density: 866.8 ± 1.9 kg/m3
[1]; 303.15 K
  mass density: 857.53 ± 2 kg/m3
[1]; 313.15 K
  mass density: 848.23 ± 2 kg/m3
[1]; 323.15 K
  mass density: 838.91 ± 2.1 kg/m3
[1]; 333.15 K
  mass density: 829.55 ± 2.1 kg/m3
[1]; 343.15 K
  mass density: 820.17 ± 2.2 kg/m3
[1]; 353.15 K
  mass density: 810.77 ± 2.2 kg/m3
[2]
  refractive index: 1.4965 ± 0.0008

## Cc1ccccc1 [toluene] + CN1CCCC1=O
[3]; 293.15 K, x1 = 1
  mass density: 866.8 ± 1.9 kg/m3
[3]; 303.15 K, x1 = 1
  mass density: 857.53 ± 2 kg/m3
[3]; 313.15 K, x1 = 1
  mass density: 848.23 ± 2 kg/m3
[3]; 323.15 K, x1 = 1
  mass density: 838.91 ± 2.1 kg/m3
[3]; 333.15 K, x1 = 1
  mass density: 829.55 ± 2.1 kg/m3
[3]; 343.15 K, x1 = 1
  mass density: 820.17 ± 2.2 kg/m3
[3]; 353.15 K, x1 = 1
  mass density: 810.77 ± 2.2 kg/m3
